# Assay results published in patent US8633200B2, “Inhibitors of human immunodeficiency virus replication” (priority 2010, dated 2014).
# Structures can show the parent of a compound that is named as a salt. Where two headings read alike, the source gives them in different places.
# Test system: recombinant NL-Rluc virus (NL4-3 with Renilla Luciferase gene) in MT-2 cells
# Assay: Inhibition of HIV replication (NL-Rluc luciferase reporter virus, MT-2 cells)
# Assay type: cell-based, human immunodeficiency virus (HIV)
# Conditions: NL43, 120 h
Compound,EC50 (read-out: Activity),EC50 (read-out: EC50 μM)
"COc1ccncc1-c1cccc(-c2cc3nc(C)c([C@H](OC(C)(C)C)C(=O)O)c(-c4cc(F)c5c(c4C)CCCO5)n3n2)c1 [Example 117, (2S)-2-(tert-Butoxy)-2-(7-(8-fluoro-5-methylchroman-6-yl)-2-(3-(4-methoxypyridin-3-yl)phenyl)-5-methylpyrazolo[1,5-a]pyrimidin-6-yl)acetic acid]",< 0.1 µM,
"Cc1nc2cc(-c3cccc(OCc4ccccc4)c3)nn2c(-c2cc(F)c3c(c2C)CCCO3)c1[C@H](OC(C)(C)C)C(=O)O [Example 94, (2S)-2-(2-(3-(Benzyloxy)phenyl)-7-(8-fluoro-5-methylchroman-6-yl)-5-methyl-pyrazolo[1,5-a]pyrimidin-6-yl)-2-tert-butoxyacetic acid]",< 0.1 µM,
"CCc1ccc(-c2cc3nc(C)c(C(OC(C)(C)C)C(=O)O)c(-c4cc(F)c5c(c4C)CCCO5)n3n2)cc1 (stereo not drawn) [Example 100, 2-tert-Butoxy-2-(2-(4-ethylphenyl)-7-(8-fluoro-5-methylchroman-6-yl)-5-methylpyrazolo[1,5-a]pyrimidin-6-yl)acetic acid, TFA salt]",0.1 to 1 µM,
"Cc1nc2cc(-c3ccc4c(c3)CCCO4)nn2c(-c2ccc3c(c2)CCCO3)c1C(OC(C)(C)C)C(=O)O (stereo not drawn) [Example 113, 2-tert-Butoxy-2-(2,7-di(chroman-6-yl)-5-methylpyrazolo[1,5-a]pyrimidin-6-yl)acetic acid, TFA salt]",0.1 to 1 µM,0.11 µM
"Cc1nc2cc(-c3ccc4c(c3)CCCC4)nn2c(-c2ccc3c(c2)CCCO3)c1[C@H](OC(C)(C)C)C(=O)O [Example 151, (S)-2-(tert-Butoxy)-2-(7-(chroman-6-yl)-5-methyl-2-(5,6,7,8-tetrahydronaphthalen-2-yl)pyrazolo[1,5-a]pyrimidin-6-yl)acetic acid]",< 0.1 µM,
Cc1ccc(F)c(-c2c(C(OC(C)(C)C)C(=O)O)c(C)nc3cc(-c4ccccc4)nn23)c1 (stereo not drawn) [Example 62],> 1 µM,5 µM
Cc1nc2cc(-c3ccccc3)nn2c(-c2ccc(C#N)cc2)c1C(OC(C)(C)C)C(=O)O (stereo not drawn) [Example 13],> 1 µM,
"Cc1nc2cc(-c3cccc(Cl)c3)nn2c(-c2cc(F)c3c(c2C)CCCO3)c1[C@H](OC(C)(C)C)C(=O)O [Example 123, (2S)-2-(tert-Butoxy)-2-(2-(3-chlorophenyl)-7-(8-fluoro-5-methylchroman-6-yl)-5-methylpyrazolo[1,5-a]pyrimidin-6-yl)acetic acid, TFA salt]",< 0.1 µM,
"COc1ccccc1-c1cccc(-c2cc3nc(C)c([C@H](OC(C)(C)C)C(=O)O)c(-c4cc(F)c5c(c4C)CCCO5)n3n2)c1 [Example 116, (2S)-2-(tert-Butoxy)-2-(7-(8-fluoro-5-methylchroman-6-yl)-2-(2′-methoxy-[1,1′-biphenyl]-3-yl)-5-methylpyrazolo[1,5-a]pyrimidin-6-yl)acetic acid]",< 0.1 µM,
Cc1cc(-c2c(C(OC(C)(C)C)C(=O)O)c(C)nc3cc(-c4ccccc4)nn23)ccc1F (stereo not drawn) [Example 59],> 1 µM,
Cc1nc2cc(-c3ccccc3)nn2c(-c2csc3ccccc23)c1C(OC(C)(C)C)C(=O)O (stereo not drawn) [Example 68],> 1 µM,
Cc1nc2cc(-c3ccccc3)nn2c(-c2ccc3c(c2)OCCCO3)c1C(OC(C)(C)C)C(=O)O (stereo not drawn) [Example 89],> 1 µM,
Cc1nc2cc(-c3ccccc3)nn2c(-c2ccc(OC(C)C)cc2)c1C(OC(C)(C)C)C(=O)O (stereo not drawn) [Example 34],> 1 µM,
"Cc1ccc(-c2c(C(OC(C)(C)C)C(=O)O)c(C)nc3ccnn23)cc1 (stereo not drawn) [Example 42, 2-tert-Butoxy-2-(5-methyl-7-p-tolylpyrazolo[1,5-a]pyrimidin-6-yl)acetic acid, TFA salt]",> 1 µM,4.5 µM
Cc1cccc(-c2c(C(OC(C)(C)C)C(=O)O)c(C)nc3cc(-c4ccccc4)nn23)c1 (stereo not drawn) [Example 17],> 1 µM,
COc1cccc(-c2c(C(OC(C)(C)C)C(=O)O)c(C)nc3cc(-c4ccccc4)nn23)c1 (stereo not drawn) [Example 8],> 1 µM,
"COc1cc(-c2cccc(-c3cc4nc(C)c([C@H](OC(C)(C)C)C(=O)O)c(-c5cc(F)c6c(c5C)CCCO6)n4n3)c2)ccn1 [Example 168, (2S)-2-(tert-Butoxy)-2-(7-(8-fluoro-5-methylchroman-6-yl)-2-(3-(2-methoxypyridin-4-yl)phenyl)-5-methylpyrazolo[1,5-a]pyrimidin-6-yl)acetic acid]",< 0.1 µM,
COc1ccc(-c2c(C(OC(C)(C)C)C(=O)O)c(C)nc3cc(-c4ccccc4)nn23)cn1 (stereo not drawn) [Example 12],> 1 µM,
"Cc1nc2c(-c3cccc(Cl)c3)c(-c3ccccc3)nn2c(-c2cc(F)c3c(c2C)CCCO3)c1[C@H](OC(C)(C)C)C(=O)O [Example 140, (2S)-2-(tert-Butoxy)-2-(3-(3-chlorophenyl)-7-(8-fluoro-5-methylchroman-6-yl)-5-methyl-2-phenylpyrazolo[1,5-a]pyrimidin-6-yl)acetic acid]",0.1 to 1 µM,1 µM
"Cc1nc2cc(-c3cccc(Oc4ccccc4)c3)nn2c(-c2cc(F)c3c(c2C)CCCO3)c1C(OC(C)(C)C)C(=O)O (stereo not drawn) [Example 97, 2-tert-Butoxy-2-(7-(8-fluoro-5-methylchroman-6-yl)-5-methyl-2-(3-phenoxyphenyl)pyrazolo[1,5-a]pyrimidin-6-yl)acetic acid, TFA salt]",< 0.1 µM,0.06 µM

Compound,EC50 (read-out: Activity),EC50 (read-out: EC50 μM)
"Cc1nc2cc(-c3cccc(OCc4ccccc4)c3)nn2c(-c2cc(F)c3c(c2C)CCCO3)c1C(OC(C)(C)C)C(=O)O (stereo not drawn) [Example 93, 2-(2-(3-(Benzyloxy)phenyl)-7-(8-fluoro-5-methylchroman-6-yl)-5-methylpyrazolo[1,5-a]pyrimidin-6-yl)-2-tert-butoxyacetic acid, TFA salt]",< 0.1 µM,0.1 µM
"Cc1nc2cc(-c3cccc(-c4cnn(C)c4)c3)nn2c(-c2cc(F)c3c(c2C)CCCO3)c1[C@H](OC(C)(C)C)C(=O)O [Example 131, (2S)-2-(tert-Butoxy)-2-(7-(8-fluoro-5-methylchroman-6-yl)-5-methyl-2-(3-(1-methyl-1H-pyrazol-4-yl)phenyl)pyrazolo[1,5-a]pyrimidin-6-yl)acetic acid]",< 0.1 µM,
Cc1nc2cc(-c3ccccc3)nn2c(-c2ccc3cn[nH]c3c2)c1C(OC(C)(C)C)C(=O)O (stereo not drawn) [Example 76],> 1 µM,
Cc1ccc(-c2c(C(OC(C)(C)C)C(=O)O)c(C)nc3cc(-c4ccccc4)nn23)c(C)c1 (stereo not drawn) [Example 91],> 1 µM,
Cc1nc2cc(-c3ccccc3)nn2c(-c2ccc3c(c2)OCO3)c1C(OC(C)(C)C)C(=O)O (stereo not drawn) [Example 30],> 1 µM,
"Cc1nc2c(C)c(-c3cccc(Cl)c3)nn2c(-c2cc(F)c3c(c2C)CCCO3)c1[C@H](OC(C)(C)C)C(=O)O [Example 158, (2S)-2-(tert-Butoxy)-2-(2-(3-chlorophenyl)-7-(8-fluoro-5-methylchroman-6-yl)-3,5-dimethylpyrazolo[1,5-a]pyrimidin-6-yl)acetic acid]",0.1 to 1 µM,
Cc1nc2cc(-c3ccccc3)nn2c(-c2cccc3cccnc23)c1C(OC(C)(C)C)C(=O)O (stereo not drawn) [Example 69],> 1 µM,
Cc1ccc(-c2cc3nc(C)c(C(OC(C)(C)C)C(=O)O)c(-c4ccc5c(c4)CCCO5)n3n2)cc1 (stereo not drawn) [Example 47],< 0.1 µM,0.08 µM
Cc1nc2cc(-c3ccccc3)nn2c(-c2ccc(OC(F)(F)F)cc2)c1C(OC(C)(C)C)C(=O)O (stereo not drawn) [Example 25],> 1 µM,
Cc1ccc(-c2c(C(OC(C)(C)C)C(=O)O)c(C)nc3cc(-c4ccccc4)nn23)c(F)c1 (stereo not drawn) [Example 54],0.1 to 1 µM,
"Cc1nc2c(C)c(-c3cccc(-c4ccccc4F)c3)nn2c(-c2cc(F)c3c(c2C)CCCO3)c1[C@H](OC(C)(C)C)C(=O)O [Example 162, (2S)-2-(tert-Butoxy)-2-(7-(8-fluoro-5-methylchroman-6-yl)-2-(2′-fluoro-[1,1′-biphenyl]-3-yl)-3,5-dimethylpyrazolo[1,5-a]pyrimidin-6-yl)acetic acid]",< 0.1 µM,
Cc1nc2cc(-c3ccccc3)nn2c(-c2ccc(C(C)C)cc2)c1C(OC(C)(C)C)C(=O)O (stereo not drawn) [Example 57],> 1 µM,1.7 µM
CCc1ccc(-c2c(C(OC(C)(C)C)C(=O)O)c(C)nc3cc(-c4ccccc4)nn23)cc1 (stereo not drawn) [Example 56],> 1 µM,
"Cc1ccc(-c2c(C(OC(C)(C)C)C(=O)O)c(C)nc3c(-c4cccc(Cl)c4)cnn23)c(Cl)c1 (stereo not drawn) [Example 134, 2-tert-Butoxy-2-(7-(2-chloro-4-methylphenyl)-3-(3-chlorophenyl)-5-methylpyrazolo[1,5-a]pyrimidin-6-yl)acetic acid]",> 1 µM,
"Cc1nc2cc(-c3cccc(-c4ccccc4)c3)nn2c(-c2cc(F)c3c(c2C)CCCO3)c1[C@H](OC(C)(C)C)C(=O)O [Example 125, (2S)-2-(2-([1,1′-Biphenyl]-3-yl)-7-(8-fluoro-5-methylchroman-6-yl)-5-methylpyrazolo[1,5-a]pyrimidin-6-yl)-2-(tert-butoxy)acetic acid]",< 0.1 µM,
Cc1nc2cc(-c3ccccc3)nn2c(-c2cccc(Cl)c2Cl)c1C(OC(C)(C)C)C(=O)O (stereo not drawn) [Example 85],> 1 µM,
Cc1nc2cc(-c3ccccc3)nn2c(-c2ccc(Cl)c(Cl)c2)c1C(OC(C)(C)C)C(=O)O (stereo not drawn) [Example 84],> 1 µM,
COc1ccc(-c2c(C(OC(C)(C)C)C(=O)O)c(C)nc3cc(-c4ccccc4)nn23)cc1C(F)(F)F (stereo not drawn) [Example 29],> 1 µM,
"Cc1nc2c(C)c(-c3cccc(-c4ccc5c(cnn5C)c4)c3)nn2c(-c2cc(F)c3c(c2C)CCCO3)c1[C@H](OC(C)(C)C)C(=O)O [Example 161, (2S)-2-(tert-Butoxy)-2-(7-(8-fluoro-5-methylchroman-6-yl)-3,5-dimethyl-2-(3-(1-methyl-1H-indazol-5-yl)phenyl)pyrazolo[1,5-a]pyrimidin-6-yl)acetic acid]",< 0.1 µM,
"Cc1ccc(-c2cc3nc(C)c(C(OC(C)(C)C)C(=O)O)c(-c4cc(F)c5c(c4C)CCCO5)n3n2)cc1OCc1ccccc1 (stereo not drawn) [Example 105, 2-(2-(3-(Benzyloxy)-4-methylphenyl)-7-(8-fluoro-5-methylchroman-6-yl)-5-methylpyrazolo[1,5-a]pyrimidin-6-yl)-2-tert-butoxyacetic acid]",< 0.1 µM,
